Assay [1] concerns the target T1, Acetylcholinesterase (Bos taurus, UniProt P23795).
T1 sequence (P23795 whole entry): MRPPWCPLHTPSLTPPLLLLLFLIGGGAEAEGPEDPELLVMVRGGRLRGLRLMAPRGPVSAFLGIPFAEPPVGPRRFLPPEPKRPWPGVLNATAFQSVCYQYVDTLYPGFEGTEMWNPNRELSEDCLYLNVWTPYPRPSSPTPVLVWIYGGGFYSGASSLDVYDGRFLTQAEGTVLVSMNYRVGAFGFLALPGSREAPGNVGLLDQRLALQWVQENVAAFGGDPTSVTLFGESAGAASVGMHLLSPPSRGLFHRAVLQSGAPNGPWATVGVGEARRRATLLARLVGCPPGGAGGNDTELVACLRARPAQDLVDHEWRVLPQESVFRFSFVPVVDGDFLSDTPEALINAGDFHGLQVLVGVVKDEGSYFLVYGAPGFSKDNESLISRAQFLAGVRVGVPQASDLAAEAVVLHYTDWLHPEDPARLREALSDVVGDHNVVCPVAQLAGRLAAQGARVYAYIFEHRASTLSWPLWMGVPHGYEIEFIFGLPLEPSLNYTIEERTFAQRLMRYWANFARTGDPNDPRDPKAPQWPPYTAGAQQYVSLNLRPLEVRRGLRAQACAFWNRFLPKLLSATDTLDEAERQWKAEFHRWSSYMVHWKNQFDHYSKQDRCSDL
Description: Inhibitory concentration against Acetylcholinesterase from bovine erythrocytes after 45 min incubation.

The target in assay [2] is Acetylcholinesterase (Homo sapiens, UniProt P22303).
Sequence of Acetylcholinesterase (Homo sapiens, UniProt P22303) (P22303 whole entry): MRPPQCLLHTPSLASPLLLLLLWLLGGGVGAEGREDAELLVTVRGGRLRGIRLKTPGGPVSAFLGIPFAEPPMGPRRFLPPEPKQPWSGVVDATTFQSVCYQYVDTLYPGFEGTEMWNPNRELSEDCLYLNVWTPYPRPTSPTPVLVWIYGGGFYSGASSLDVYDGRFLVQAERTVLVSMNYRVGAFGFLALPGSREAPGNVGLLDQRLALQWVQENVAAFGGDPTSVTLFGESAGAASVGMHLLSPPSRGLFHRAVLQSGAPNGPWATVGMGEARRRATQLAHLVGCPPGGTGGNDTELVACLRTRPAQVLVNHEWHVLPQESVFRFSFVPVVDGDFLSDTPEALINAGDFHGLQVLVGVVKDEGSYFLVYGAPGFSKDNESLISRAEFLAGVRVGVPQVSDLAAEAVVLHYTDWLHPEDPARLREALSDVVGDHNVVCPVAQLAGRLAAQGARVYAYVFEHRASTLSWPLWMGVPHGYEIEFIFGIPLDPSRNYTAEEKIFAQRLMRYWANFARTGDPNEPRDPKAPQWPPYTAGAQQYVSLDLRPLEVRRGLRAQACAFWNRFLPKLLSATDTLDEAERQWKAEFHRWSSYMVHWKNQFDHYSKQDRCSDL
Description: Inhibitory concentration against Acetylcholinesterase from human erythrocytes
The next assay deals with Cholinesterase (Homo sapiens, UniProt P06276).
Sequence of Cholinesterase (P06276 whole entry): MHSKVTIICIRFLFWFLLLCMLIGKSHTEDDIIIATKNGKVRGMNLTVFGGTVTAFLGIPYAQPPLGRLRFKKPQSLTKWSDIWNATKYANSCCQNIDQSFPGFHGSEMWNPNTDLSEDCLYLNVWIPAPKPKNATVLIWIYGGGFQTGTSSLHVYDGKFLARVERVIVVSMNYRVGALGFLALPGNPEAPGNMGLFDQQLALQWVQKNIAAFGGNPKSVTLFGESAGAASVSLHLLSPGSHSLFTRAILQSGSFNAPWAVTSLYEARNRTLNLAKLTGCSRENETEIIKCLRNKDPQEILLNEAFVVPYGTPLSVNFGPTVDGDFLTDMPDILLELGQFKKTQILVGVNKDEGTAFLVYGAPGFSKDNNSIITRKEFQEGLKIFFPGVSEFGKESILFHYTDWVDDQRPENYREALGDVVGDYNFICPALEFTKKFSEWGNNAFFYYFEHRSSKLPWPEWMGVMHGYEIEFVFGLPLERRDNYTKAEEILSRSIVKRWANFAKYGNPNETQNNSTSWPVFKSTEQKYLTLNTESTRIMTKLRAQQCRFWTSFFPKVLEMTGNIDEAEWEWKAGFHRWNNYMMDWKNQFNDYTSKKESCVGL
Assay [3] addresses T1, Acetylcholinesterase.

`CC1=C[C@@H]2Cc3nc4cc(Cl)ccc4c(NCCCN(C)CCCCNc4c5c(nc6cc(Cl)ccc46)CCCC5)c3[C@H](C1)C2`: the IC50 against Acetylcholinesterase [1] was found to be 440 pM; on Acetylcholinesterase [2], 290 pM; against Cholinesterase it was 31100 pM; at Acetylcholinesterase [3] it was 540 pM.
With `CC1=C[C@@H]2Cc3nc4cc(Cl)ccc4c(NCCCN(C)CCCCNc4c5c(nc6ccccc46)CCCC5)c3[C@H](C1)C2`, the half-inhibitory concentration (IC50) was 260 pM at Acetylcholinesterase [1], 320 pM against Acetylcholinesterase [2], 16400 pM at Cholinesterase and 330 pM against Acetylcholinesterase [3].
For `CC1=CC2Cc3nc4cc(Cl)ccc4c(NCCCCCCCCNc4c5c(nc6ccccc46)CCCC5)c3C(C1)C2` (stereo unspecified) the same measures were 650 pM, 330 pM, 4740 pM and 1260 pM.
For `CCC1=CC2Cc3nc4ccccc4c(NCCCCCCCCNc4c5c(nc6ccccc46)CCCC5)c3C(C1)C2` (stereo unspecified) the same measures were 1670 pM, 820 pM, 5550 pM and 2190 pM.
For the compound `CC1=CC2Cc3nc4cc(Cl)ccc4c(NCCCCCCCNc4c5c(nc6cc(Cl)ccc46)CCCC5)c3C(C1)C2` (stereo unspecified), the IC50 is 1600 pM at Acetylcholinesterase [1], 330 pM against Acetylcholinesterase [2], 7380 pM at Cholinesterase and 1970 pM on Acetylcholinesterase [3].
In the case of `CC1=CC2Cc3nc4cc(Cl)ccc4c(NCCCCCCCCNc4c5c(nc6cc(Cl)ccc46)CCCC5)c3C(C1)C2` (stereo unspecified), the IC50 on Acetylcholinesterase [1] came to 1310 pM; at Acetylcholinesterase [2], 400 pM; at Cholinesterase, 7800 pM; on Acetylcholinesterase [3], 2090 pM.
For `CC1=CC2Cc3nc4cc(Cl)ccc4c(NCCCCCCNc4c5c(nc6cc(Cl)ccc46)CCCC5)c3C(C1)C2` (stereo unspecified) the same measures were 800 pM, 450 pM, 14000 pM and 1060 pM.
For `CC1=CC2Cc3nc4cc(Cl)ccc4c(NCCCCCCNc4c5c(nc6ccccc46)CCCC5)c3C(C1)C2` (stereo unspecified), the IC50 is 270 pM against Acetylcholinesterase [1], 500 pM against Acetylcholinesterase [2], 7690 pM on Cholinesterase and 400 pM against Acetylcholinesterase [3].
For `CC1=CC2Cc3nc4cc(Cl)ccc4c(NCCCCCCCNc4c5c(nc6ccccc46)CCCC5)c3C(C1)C2` (stereo unspecified), the IC50 at Acetylcholinesterase [1] is 360 pM; at Acetylcholinesterase [2], 340 pM; at Cholinesterase it was 6700 pM; at Acetylcholinesterase [3], 480 pM.

Source of the values: ChEMBL document CHEMBL1142714, “Synthesis and pharmacological evaluation of huprine-tacrine heterodimers: subnanomolar dual binding site acetylcholinesterase inhibitors” (J Med Chem, 2005).
